Results from patent US20100216724A1, “USE OF F[…] (196-203 ) AS A […] AGENT” (priority 2007, published 2010).
Where no end group is shown, it is not given here.

Key:
MRSA = MRSA growth; peptide 10 micrograms per ml; read visually
Streptococcus pneumoniae = Streptococcus pneumoniae assay; format: cell-based; settings: Streptococcus pneumoniae growth; peptide 10 micrograms per ml; read visually
[1] = Cytotoxicity (MTS cell viability) in the HIV-1 assay; settings: human, CEM-SS cells
Pseudomonas aeruginosa = Pseudomonas aeruginosa assay; format: cell-based; settings: Pseudomonas aeruginosa growth; peptide 10 micrograms per ml; read visually
[2] = Cytotoxicity testing (CellTiter 96) in MRC-5 cells; format: cell-based; settings: human, MRC-5 cells (human embryonal lung fibroblasts), 6 days incubation, read-out: % Cell viability
Protocol: Ganciclovir was used as positive control. […] For cytotxicity testing, MRC-5 cells were seeded at 2,500 cells/well in 96 well plates using growth medium. […] The following day, peptide were added and tested in duplicates. After a 6 days incubation period, cell viability was measured using CellTiter 96 Solution (Promega). Plates were incubated for additional 4 hours at 37° C.

in vitro = settings: human, HepG2-2.2.15 cells
HIV-1IIIB = test: HIV-1 antiviral assay (CPE reduction, MTS) in CEM-SS cells; format: cell-based; settings: test peptide 10 micrograms per ml, 6 days post-infection

Compound	% inhibition (MRSA)	% inhibition (Streptococcus pneumoniae)	viability at 10 micrograms per ml [1]	% inhibition (Pseudomonas aeruginosa)	viability at 144 h [2]	viability at 144 h, 10 micrograms per ml (in vitro)	% CPE reduction in HIV-1 infected CEM-SS cells (HIV-1IIIB)
SRNRCNDQ-NH2	0.0%	0.0%	100%	0.0%	100%	100%	
Cc1cn([C@H]2C[C@H](N=[N+]=[N-])[C@@H](CO)O2)c(=O)[nH]c1=O [AZT]							99%
